Reference: ChEMBL document CHEMBL1201862, “PubChem BioAssay data set” (2004)
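1) Cells in 96-well plates. 2) Compound, 48 h, 5 concentrations. 3) Linear interpolation between surrounding doses. 4) Unreached endpoint = highest concentration. GI50 = concentration required for 50% inhibition of growth.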 Calls of active or inactive are those of the source. No stated cut-off is given here; in the data, active = GI50 up to about 1.1 µM and inactive = higher.

How the values were obtained:
Test in all cases: NCI tumour cell line growth inhibition, 48 h
HCT-15 = test system: HCT-15
MCF7 = test system: MCF7
SW-620 = test system: SW-620
UACC-257 = test system: UACC-257
SK-MEL-28 = test system: SK-MEL-28
NCI-H226 = test system: NCI-H226
T47D = test system: T47D
HCT-116 = test system: HCT-116
NCI/ADR-RES = test system: NCI/ADR-RES
A498 = test system: A498
NCI-H460 = test system: NCI-H460
CAKI-1 = test system: CAKI-1
TK-10 = test system: TK-10
MDA-MB-435 = test system: MDA-MB-435
DU-145 = test system: DU-145
SN12C = test system: SN12C
SK-OV-3 = test system: SK-OV-3
Malme-3M = test system: Malme-3M
A549 = test system: A549
HOP-92 = test system: HOP-92

| Structure (SMILES) | GI50 (HCT-15) | GI50 (MCF7) | GI50 (SW-620) | GI50 (UACC-257) | GI50 (SK-MEL-28) | GI50 (NCI-H226) | GI50 (T47D) | GI50 (HCT-116) | GI50 (NCI/ADR-RES) | GI50 (A498) | GI50 (NCI-H460) | GI50 (CAKI-1) | GI50 (TK-10) | GI50 (MDA-MB-435) | GI50 (DU-145) | GI50 (SN12C) | GI50 (SK-OV-3) | GI50 (Malme-3M) | GI50 (A549) | GI50 (HOP-92) |
| --- | --- | --- | --- | --- | --- | --- | --- | --- | --- | --- | --- | --- | --- | --- | --- | --- | --- | --- | --- | --- |
| O=C1C(=Cc2ccco2)C(=O)C2CCCCC12 (stereo not given) | > 100 µM | > 100 µM (inactive) | > 100 µM (inactive) | > 100 µM (inactive) | > 100 µM (inactive) | > 100 µM (inactive) | > 100 µM (inactive) | > 100 µM (inactive) | > 100 µM (inactive) | > 100 µM (inactive) | > 100 µM (inactive) | > 100 µM (inactive) | > 100 µM (inactive) | > 100 µM (inactive) | > 100 µM (inactive) | > 100 µM (inactive) | > 100 µM (inactive) | > 100 µM (inactive) | > 100 µM (inactive) | > 100 µM (inactive) |
| BrCCC[P+](c1ccccc1)(c1ccccc1)c1ccccc1 | > 100 µM | 6.22 µM (inactive) | 25.5 µM (inactive) | 2.71 µM (inactive) | 19 µM (inactive) | > 78.7 µM (inactive) | 5.85 µM (inactive) | 1.64 µM (inactive) | > 100 µM (inactive) | 49.5 µM (inactive) | 15.2 µM (inactive) | > 100 µM (inactive) | 80.9 µM (inactive) | 4.61 µM (inactive) | 32.7 µM (inactive) | 23.1 µM (inactive) | 83.4 µM (inactive) | 16.2 µM (inactive) | 25.6 µM (inactive) | 8 µM (inactive) |
| Cc1ccc(S(=O)(=O)N2CCC(C(=O)O)(c3ccccc3)CC2)cc1 | > 100 µM | > 100 µM (inactive) | > 100 µM (inactive) | > 100 µM (inactive) | > 100 µM (inactive) | > 100 µM (inactive) | > 100 µM (inactive) | > 100 µM (inactive) | > 100 µM (inactive) | > 100 µM (inactive) | > 100 µM (inactive) | > 100 µM (inactive) | > 100 µM (inactive) | > 100 µM (inactive) | > 100 µM (inactive) | > 100 µM (inactive) | > 100 µM (inactive) | > 100 µM (inactive) | > 100 µM (inactive) | > 100 µM (inactive) |
| NS(=O)(=O)c1ccc(NCc2cnc3ccccc3n2)cc1 | > 100 µM | > 100 µM (inactive) | > 100 µM (inactive) | > 100 µM (inactive) | > 100 µM (inactive) | > 100 µM (inactive) | > 100 µM (inactive) | > 100 µM (inactive) | > 100 µM (inactive) | > 100 µM (inactive) | > 100 µM (inactive) | > 100 µM (inactive) | > 100 µM (inactive) | > 100 µM (inactive) | > 100 µM (inactive) | > 100 µM (inactive) | > 100 µM (inactive) | > 100 µM (inactive) | > 100 µM (inactive) | > 100 µM (inactive) |
| N#C/C(=C(\O)C(=O)O)c1ccc(-c2cccc3ccccc23)cc1 | > 100 µM | > 100 µM (inactive) | > 100 µM (inactive) | > 100 µM (inactive) | > 100 µM (inactive) | > 100 µM (inactive) | > 100 µM (inactive) | > 100 µM (inactive) | > 100 µM (inactive) | > 100 µM (inactive) | > 100 µM (inactive) | > 100 µM (inactive) | > 100 µM (inactive) | > 100 µM (inactive) | > 100 µM (inactive) | > 100 µM (inactive) | > 100 µM (inactive) | > 100 µM (inactive) | > 100 µM (inactive) | > 100 µM (inactive) |
